Assays:
BAF3-KIF5B-RET cells = target: T1, BAF3-KIF5B-RET cells (Homo sapiens, UniProt P07949); experiment: BAF3-KIF5B-RET Cell proliferation assay (CellTiter-Glo, 72 hours); type: cell-based; settings: growth inhibition, read-out: BA/F3-KIF5B-RET Cellular activity
T1 construct: fused on or other part: P33176 (Kinesin-1 heavy chain)
In short: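 Cells seeded at 2,000/well in RPMI-1640 with 10% FBS and left 24 h at 37 °C, then exposed 72 h to nine compound levels (final 1 μM down to 0.00015 μM, 0.1% DMSO). CellTiter-Glo luminescence gave viability versus DMSO wells, from which IC50 was fitted.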

human KDR kinase = target: T2, human KDR kinase (Homo sapiens, UniProt P35968); experiment: KDR Kinase Assay (LanthaScreen TR-FRET enzymatic assay); type: biochemical; settings: 1.2 nM KDR, 92 μM ATP
T2 construct: purchased Carna 08-191
In short: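 TR-FRET enzymatic format: after 15-min room-temperature compound pretreatment, 1.2 nM human KDR phosphorylated 3 μM FAM-P22 with 92 μM ATP (HEPES pH 7.5, 28° C., one hour). Reactions were quenched with EDTA buffer. IC50 came from nonlinear sigmoid fits of percent-of-vehicle signal ratios.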

human RET kinase = target: T3, human RET kinase (Homo sapiens, UniProt P07949); experiment: RET Kinase Assay (LanthaScreen TR-FRET enzymatic assay); type: biochemical; settings: 7 nM RET, 23 μM ATP
T3 construct: purchased Carna 08-159
In short: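 TR-FRET enzymatic read-out using 23 μM ATP, 3 μM FAM-P2 substrate and 7 nM human RET, after 15-min compound pretreatment at room temperature and a 1 h reaction at 28° C in HEPES pH 7.5 buffer. Percent of DMSO control fitted to nonlinear sigmoid curves for IC50.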

T1 sequence (P07949 whole entry, change not shown, the tested form may be a part): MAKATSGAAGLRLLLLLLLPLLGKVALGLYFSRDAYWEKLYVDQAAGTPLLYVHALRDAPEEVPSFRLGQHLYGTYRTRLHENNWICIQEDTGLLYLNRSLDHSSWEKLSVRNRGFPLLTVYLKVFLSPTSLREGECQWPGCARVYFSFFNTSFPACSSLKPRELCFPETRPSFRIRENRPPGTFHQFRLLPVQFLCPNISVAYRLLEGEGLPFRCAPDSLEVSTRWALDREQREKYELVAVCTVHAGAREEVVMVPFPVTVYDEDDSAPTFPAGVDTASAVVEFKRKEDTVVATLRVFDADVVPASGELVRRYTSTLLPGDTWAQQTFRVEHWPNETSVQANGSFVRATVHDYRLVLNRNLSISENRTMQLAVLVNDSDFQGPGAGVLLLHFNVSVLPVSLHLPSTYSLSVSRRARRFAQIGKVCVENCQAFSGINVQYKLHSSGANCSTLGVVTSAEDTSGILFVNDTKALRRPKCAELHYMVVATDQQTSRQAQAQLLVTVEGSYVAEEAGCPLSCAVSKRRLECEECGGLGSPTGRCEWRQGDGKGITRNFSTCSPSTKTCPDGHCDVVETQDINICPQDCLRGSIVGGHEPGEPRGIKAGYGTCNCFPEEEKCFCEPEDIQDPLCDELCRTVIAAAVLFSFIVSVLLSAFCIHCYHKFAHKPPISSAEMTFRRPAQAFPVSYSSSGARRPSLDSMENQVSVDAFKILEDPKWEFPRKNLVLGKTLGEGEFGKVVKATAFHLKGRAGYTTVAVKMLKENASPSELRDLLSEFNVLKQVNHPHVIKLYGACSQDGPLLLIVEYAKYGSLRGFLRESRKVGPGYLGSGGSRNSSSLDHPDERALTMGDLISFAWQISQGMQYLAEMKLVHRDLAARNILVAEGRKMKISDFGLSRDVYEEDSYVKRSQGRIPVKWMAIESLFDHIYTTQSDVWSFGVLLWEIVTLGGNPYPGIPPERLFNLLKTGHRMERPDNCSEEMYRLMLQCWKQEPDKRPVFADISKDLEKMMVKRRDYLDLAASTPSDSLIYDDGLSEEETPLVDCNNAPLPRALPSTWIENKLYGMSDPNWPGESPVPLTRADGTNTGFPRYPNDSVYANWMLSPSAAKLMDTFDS
T3 sequence (P07949 29-1114): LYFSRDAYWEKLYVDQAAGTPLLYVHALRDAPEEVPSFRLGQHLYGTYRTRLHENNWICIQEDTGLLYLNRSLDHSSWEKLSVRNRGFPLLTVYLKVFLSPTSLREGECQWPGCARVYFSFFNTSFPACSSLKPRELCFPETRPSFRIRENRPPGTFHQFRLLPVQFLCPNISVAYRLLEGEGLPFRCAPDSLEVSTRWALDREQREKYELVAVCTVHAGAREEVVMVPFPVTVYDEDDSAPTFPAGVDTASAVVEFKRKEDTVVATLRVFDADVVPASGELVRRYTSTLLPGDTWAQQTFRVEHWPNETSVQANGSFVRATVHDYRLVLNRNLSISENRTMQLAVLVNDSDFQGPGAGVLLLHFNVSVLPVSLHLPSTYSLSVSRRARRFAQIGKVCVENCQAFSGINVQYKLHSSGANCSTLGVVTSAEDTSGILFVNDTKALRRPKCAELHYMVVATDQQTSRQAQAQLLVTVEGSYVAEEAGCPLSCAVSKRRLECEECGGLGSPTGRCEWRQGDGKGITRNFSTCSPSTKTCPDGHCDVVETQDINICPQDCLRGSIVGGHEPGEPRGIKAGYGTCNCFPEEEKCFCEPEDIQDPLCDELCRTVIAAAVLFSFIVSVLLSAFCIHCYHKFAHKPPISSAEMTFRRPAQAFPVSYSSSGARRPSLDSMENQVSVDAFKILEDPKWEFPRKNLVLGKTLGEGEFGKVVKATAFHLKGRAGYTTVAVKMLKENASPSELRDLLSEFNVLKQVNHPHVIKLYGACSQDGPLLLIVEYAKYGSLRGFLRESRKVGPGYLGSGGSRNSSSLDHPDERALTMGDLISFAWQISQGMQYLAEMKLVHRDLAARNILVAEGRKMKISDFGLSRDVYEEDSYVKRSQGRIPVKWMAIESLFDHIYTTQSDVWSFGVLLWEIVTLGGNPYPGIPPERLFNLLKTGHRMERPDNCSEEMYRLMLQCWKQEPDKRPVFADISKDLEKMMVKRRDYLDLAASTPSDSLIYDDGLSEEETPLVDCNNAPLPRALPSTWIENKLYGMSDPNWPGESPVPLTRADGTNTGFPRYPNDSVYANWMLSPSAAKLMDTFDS
T2 sequence (P35968 20-1356): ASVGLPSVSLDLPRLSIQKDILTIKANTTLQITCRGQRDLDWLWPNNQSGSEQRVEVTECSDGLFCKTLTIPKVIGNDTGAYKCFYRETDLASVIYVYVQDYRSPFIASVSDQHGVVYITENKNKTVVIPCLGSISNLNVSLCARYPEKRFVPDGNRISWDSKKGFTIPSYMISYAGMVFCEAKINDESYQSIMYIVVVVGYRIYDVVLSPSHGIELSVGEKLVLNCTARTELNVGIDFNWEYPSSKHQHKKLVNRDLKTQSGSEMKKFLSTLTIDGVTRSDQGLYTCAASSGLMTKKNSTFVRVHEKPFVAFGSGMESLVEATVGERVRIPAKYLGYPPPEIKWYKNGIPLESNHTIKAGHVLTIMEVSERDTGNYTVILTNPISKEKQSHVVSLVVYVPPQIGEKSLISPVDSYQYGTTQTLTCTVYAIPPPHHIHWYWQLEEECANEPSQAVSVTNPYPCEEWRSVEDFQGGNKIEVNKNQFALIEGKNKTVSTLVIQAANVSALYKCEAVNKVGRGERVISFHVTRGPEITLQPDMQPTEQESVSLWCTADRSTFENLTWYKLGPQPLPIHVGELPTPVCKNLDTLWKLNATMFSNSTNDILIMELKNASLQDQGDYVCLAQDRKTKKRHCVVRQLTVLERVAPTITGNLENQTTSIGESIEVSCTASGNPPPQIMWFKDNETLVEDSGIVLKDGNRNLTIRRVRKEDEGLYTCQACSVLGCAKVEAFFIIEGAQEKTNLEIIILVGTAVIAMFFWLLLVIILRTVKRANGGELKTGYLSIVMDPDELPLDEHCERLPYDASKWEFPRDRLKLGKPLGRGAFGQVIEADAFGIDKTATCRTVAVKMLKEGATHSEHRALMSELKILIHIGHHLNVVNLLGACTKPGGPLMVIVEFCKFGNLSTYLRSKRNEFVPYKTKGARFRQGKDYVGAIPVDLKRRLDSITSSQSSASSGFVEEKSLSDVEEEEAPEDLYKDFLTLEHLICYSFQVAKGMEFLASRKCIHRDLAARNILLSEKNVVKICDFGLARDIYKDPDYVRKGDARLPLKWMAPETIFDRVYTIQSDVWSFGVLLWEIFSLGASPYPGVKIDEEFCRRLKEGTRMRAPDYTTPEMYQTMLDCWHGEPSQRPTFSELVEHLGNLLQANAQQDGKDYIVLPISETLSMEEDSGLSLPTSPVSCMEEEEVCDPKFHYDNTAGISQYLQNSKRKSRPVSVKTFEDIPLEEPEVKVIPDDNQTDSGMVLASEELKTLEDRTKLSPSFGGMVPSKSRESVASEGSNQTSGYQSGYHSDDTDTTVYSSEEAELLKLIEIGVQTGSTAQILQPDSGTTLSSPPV

Row | Compound | GI50 (BAF3-KIF5B-RET cells) [nM] | IC50 (human KDR kinase) [nM] | IC50 (human RET kinase) [nM]
1 | COc1ccc(C(=O)NC[C@@H]2[C@H]3CN(c4cnc(-c5cc(OCC(C)(C)O)cn6ncc(C#N)c56)cn4)C[C@@H]23)cn1 [Example 155, N-(((1R,5S,6s)-3-(5-(3-cyano-6-(2-hydroxy-2-methylpropoxy)pyrazolo[1,5-a]pyridin-4-yl)pyrazin-2-yl)-3-azabicyclo[3.1.0]hexan-6-yl)methyl)-6-methoxynicotinamide] | > 100 | – | 50 to 100
2 | COc1ccc(NC(=O)[C@@]2(C)C[C@H]3CN(c4ccc(-c5cc(OCC(C)(C)O)cn6ncc(C#N)c56)cn4)C[C@H]3C2)cn1 [Example 116, (3aR,5r,6aS)-2-(5-(3-cyano-6-(2-hydroxy-2-methylpropoxy)pyrazolo[1,5-a]pyridin-4-yl)pyridin-2-yl)-N-(6-methoxypyridin-3-yl)-5-methyloctahydrocyclopenta[c]pyrrole-5-carboxamide] | > 100 | – | 10 to 50
3 | CC(C)(O)COc1cc(-c2cnc(N3C4CC5CC3CC(NC(=O)c3ncccc3F)(C5)C4)cn2)c2c(C#N)cnn2c1 [Example 168, N-((1R,3S,5s,7s)-2-(5-(3-cyano-6-(2-hydroxy-2-methylpropoxy)pyrazolo[1,5-a]pyridin-4-yl)pyrazin-2-yl)-2-azaadamantan-5-yl)-3-fluoropicolinamide] | 10 to 50 | – | ≤ 10
4 | CCOc1cc(-c2ccc(N3C4CC5CC3CC(NC(=O)c3ccc(OC)nc3)(C5)C4)nc2)c2c(C#N)cnn2c1 [Example 139, N-((1R,3S,5s,7s)-2-(5-(3-cyano-6-ethoxypyrazolo[1,5-a]pyridin-4-yl)pyridin-2-yl)-2-azaadamantan-5-yl)-6-methoxynicotinamide] | 50 to 100 | – | ≤ 10
5 | CCOc1cc(-c2cnc(N3C4CC5CC3CC(NC(=O)c3ccc(OC)nc3)(C5)C4)cn2)c2c(C#N)cnn2c1 [Example 167, N-((1R,3S,5s,7s)-2-(5-(3-cyano-6-cthoxypyrazolo[1,5-a]pyridin-4-yl)pyrazin-2-yl)-2-azaadamantan-5-yl)-6-methoxynicotinamide] | 50 to 100 | – | ≤ 10
6 | CC(C)(O)COc1cc(-c2ccc(N3C[C@@H]4C[C@](C)(NC(=O)c5ncccc5Cl)C[C@@H]4C3)nc2)c2c(C#N)cnn2c1 [Example 115, 3-chloro-N-((3aR,5r,6aS)-2-(5-(3-cyano-6-(2-hydroxy-2-methylpropoxy)pyrazolo[1,5-a]pyridin-4-yl)pyridin-2-yl)-5-methyloctahydrocyclopenta[c]pyrrol-5-yl)picolinamide] | 10 to 50 | – | ≤ 10
7 | COc1ccc(CN2[C@@H]3CC[C@H]2[C@H]2CN(c4ccc(-c5cc(-c6cnn(C)c6)cn6ncc(C#N)c56)cn4)C[C@H]23)cn1 [Example 118, 4-(6-((3aR,4S,7R,7aS)-8-((6-methoxypyridin-3-yl)methyl)hexahydro-1H-4,7-epiminoisoindol-2(3H)-yl)pyridin-3-yl)-6-(1-methyl-1H-pyrazol-4-yl)pyrazolo[1,5-a]pyridine-3-carbonitrile] | 10 to 50 | – | ≤ 10
8 | COc1ccc(NC(=O)C23CC4CC(C2)N(c2cnc(-c5cc(OCC(C)(C)O)cn6ncc(C#N)c56)cn2)C(C4)C3)cn1 [Example 171, (1R,3S,5s,7s)-2-(5-(3-cyano-6-(2-hydroxy-2-methylpropoxy)pyrazolo[1,5-a]pyridin-4-yl)pyrazin-2-yl)-N-(6-methoxypyridin-3-yl)-2-azaadamantane-5-carboxamide] | 10 to 50 | – | ≤ 10
9 | Cn1cc(-c2cc(-c3cnc(N4C5CC6CC4CC(NC=O)(C6)C5)cn3)c3c(C#N)cnn3c2)cn1 [Example 107, N-((1R,3S,5s,7s)-2-(5-(3-cyano-6-(1-methyl-1H-pyrazol-4-yl)pyrazolo[1,5-a]pyridin-4-yl)pyrazin-2-yl)-2-azaadamantan-5-yl)formamide] | 10 to 50 | – | ≤ 10
10 | Cn1cc(-c2cc(-c3cnc(N4C[C@@H]5C[C@](C)(NC(=O)c6ncccc6Cl)C[C@@H]5C4)cn3)c3c(C#N)cnn3c2)cn1 [Example 199, 3-chloro-N-((3aR,5r,6aS)-2-(5-(3-cyano-6-(1-methyl-1H-pyrazol-4-yl)pyrazolo[1,5-a]pyridin-4-yl)pyrazin-2-yl)-5-methyloctahydrocyclopenta[c]pyrrol-5-yl)picolinamide] | 10 to 50 | – | ≤ 10

Further lines, results first:

Row | GI50 (BAF3-KIF5B-RET cells) [nM] | IC50 (human KDR kinase) [nM] | IC50 (human RET kinase) [nM] | Compound
11 | 10 to 50 | 50 to 100 | ≤ 10 | Cn1cc(-c2cc(-c3cnc(N4C[C@@H]5[C@H](C4)[C@H]5NC(=O)c4ncccc4Cl)cn3)c3c(C#N)cnn3c2)cn1 [Example 102, 3-chloro-N-((1R,5S,6s)-3-(5-(3-cyano-6-(1-methyl-1H-pyrazol-4-yl)pyrazolo[1,5-a]pyridin-4-yl)pyrazin-2-yl)-3-azabicyclo[3.1.0]hexan-6-yl)picolinamide]
12 | ≤ 10 | 10 to 50 | ≤ 10 | Cn1cc(-c2cc(-c3cnc(N4C[C@@H]5[C@@H](CNC(=O)c6ncccc6Cl)[C@@H]5C4)cn3)c3c(C#N)cnn3c2)cn1 [Example 153, 3-chloro-N-(((1R,5S,6s)-3-(5-(3-cyano-6-(1-methyl-1H-pyrazol-4-yl)pyrazolo[1,5-a]pyridin-4-yl)pyrazin-2-yl)-3-azabicyclo[3.1.0]hexan-6-yl)methyl)picolinamide]
13 | ≤ 10 | – | ≤ 10 | CC(C)(O)COc1cc(-c2cnc(N3C4CC5CC3CC(NC(=O)c3ncccc3Cl)(C5)C4)cn2)c2c(C#N)cnn2c1 [Example 164, 3-chloro-N-((1R,3S,5s,7s)-2-(5-(3-cyano-6-(2-hydroxy-2-methylpropoxy)pyrazolo[1,5-a]pyridin-4-yl)pyrazin-2-yl)-2-azaadamantan-5-yl)picolinamide]
14 | 10 to 50 | – | ≤ 10 | Cn1cc(-c2cc(-c3cnc(N4C5CC6CC4CC(O)(C6)C5)cn3)c3c(C#N)cnn3c2)cn1 [Example 104, 4-(5-((1R,3S,5s,7s)-5-hydroxy-2-azaadamantan-2-yl)pyrazin-2-yl)-6-(1-methyl-1H-pyrazol-4-yl)pyrazolo[1,5-a]pyridine-3-carbonitrile]
15 | ≤ 10 | – | ≤ 10 | COc1ccc(C(=O)NC23CC4CC(C2)N(c2ccc(-c5cc(-c6cnn(C)c6)cn6ncc(C#N)c56)cn2)C(C4)C3)cn1 [Example 188, N-((1R,3S,5s,7s)-2-(5-(3-cyano-6-(1-methyl-1H-pyrazol-4-yl)pyrazolo[1,5-a]pyridin-4-yl)pyridin-2-yl)-2-azaadainantan-5-yl)-6-methoxynicotinamide]
16 | 10 to 50 | – | ≤ 10 | COc1ccc(NC(=O)C23CC4CC(C2)N(c2ccc(-c5cc(OCC(C)(C)O)cn6ncc(C#N)c56)cn2)C(C4)C3)cn1 [Example 133, (1R,3S,5s,7s)-2-(5-(3-cyano-6-(2-hydroxy-2-methylpropoxy)pyrazolo[1,5-a]pyridin-4-yl)pyridin-2-yl)-N-(6-methoxypyridin-3-yl)-2-azaadamantane-5-carboxamide]
17 | ≤ 10 | – | ≤ 10 | COc1ccc(C(=O)N[C@]2(C)C[C@H]3CN(c4cnc(-c5cc(-c6cnn(C)c6)cn6ncc(C#N)c56)cn4)C[C@H]3C2)cn1 [Example 145, N-((3aR,5s,6aS)-2-(5-(3-cyano-6-(1-methyl-1H-pyrazol-4-yl)pyrazolo[1,5-a]pyridin-4-yl)pyrazin-2-yl)-5-methyloctahydrocyclopenta[c]pyrrol-5-yl)-6-methoxynicotinamide]
18 | 10 to 50 | – | ≤ 10 | COc1cc(C(=O)NC[C@@H]2[C@H]3CN(c4ccc(-c5cc(-c6cnn(C)c6)cn6ncc(C#N)c56)cn4)C[C@@H]23)ccn1 [Example 194, N-(((1R,5S,6s)-3-(5-(3-cyano-6-(1-methyl-1H-pyrazol-4-yl)pyrazolo[1,5-a]pyridin-4-yl)pyridin-2-yl)-3-azabicyclo[3.1.0]hexan-6-yl)methyl)-2-methoxyisonicotinamide]
19 | ≤ 10 | – | ≤ 10 | CCOc1cc(-c2cnc(N3C4CC5CC3CC(NC(=O)c3ncccc3Cl)(C5)C4)cn2)c2c(C#N)cnn2c1 [Example 169, 3-chloro-N-((1R,3S,5s,7s)-2-(5-(3-cyano-6-ethoxypyrazolo[1,5-a]pyridin-4-yl)pyrazin-2-yl)-2-azaadamantan-5-yl)picolinamide]
20 | 10 to 50 | – | 10 to 50 | COc1ccc(C(=O)N[C@@H]2C[C@@H]3CN(c4ccc(-c5cc(OCC(C)(C)O)cn6ncc(C#N)c56)cn4)C[C@@H]3C2)cn1 [Example 159, N-((3aR,5r,6aS)-2-(5-(3-cyano-6-(2-hydroxy-2-methylpropoxy)pyrazolo[1,5-a]pyridin-4-yl)pyridin-2-yl)octahydrocyclopenta[c]pyrrol-5-yl)-6-methoxynicotinamide]
21 | ≤ 10 | – | ≤ 10 | COc1cccc(C(=O)NC[C@@H]2[C@H]3CN(c4ccc(-c5cc(-c6cnn(C)c6)cn6ncc(C#N)c56)cn4)C[C@@H]23)n1 [Example 195, N-(((1R,5S,6s)-3-(5-(3-cyano-6-(1-methyl-1H-pyrazol-4-yl)pyrazolo[1,5-a]pyridin-4-yl)pyridin-2-yl)-3-azabicyclo[3.1.0]hexan-6-yl)methyl)-6-methoxypicolinamide]

Reference: patent publication US20220220128A1, “HETEROCYCLIC COMPOUNDS AS KINASE INHIBITORS, COMPOSITIONS COMPRISING THE HETEROCYCLIC COMPOUND, AND METHODS OF USE THEREOF” (JS Innopharm (Shanghai) Ltd, priority 2019, published 2022)
